Assay: Human HepG2 cell viability assay in 384 well format
Type: toxicity, cell-based
Design: dose 125 nL, time 70.5 hour; cytotoxicity at 70.5 h: concentration not given beside the values
Settings: HepG2 cells, read-out: Inhibition
For `CSCC(=O)N1CCC2(CC1)c1ccccc1CC2O` (centres undefined), the cytotoxicity at 70.5 h was 16.5%.
Work on `Cc1ccc(CN(C(=O)NCCNC(=O)c2cccnc2)C(C)C)o1` yielded a cytotoxicity at 70.5 h of 14.6%.
`Cc1ccc2oc(=O)n(CC(=O)N3CCC4(CC3)CN(C)C(=O)O4)c2c1` showed a cytotoxicity at 70.5 h of 13.2%.
`CS(=O)(=O)NC[C@@H]1OC[C@H]2CN(Cc3ccccc3)CC[C@H]21` gave a cytotoxicity at 70.5 h of -1.13%.
In the case of `CC(=O)N1CCC(CCNC(C)Cc2ccc(F)cc2)CC1` (centres undefined), the cytotoxicity at 70.5 h is reported as -13.1%.
In the case of `Cc1nc(C)c(CC(=O)NCc2ccccc2F)s1`, the cytotoxicity at 70.5 h is reported as -11.1%.
`Cc1nc(-c2cccnc2)ncc1C(=O)N1CCCCC(N)C1` (centres undefined) gave a cytotoxicity at 70.5 h of -23.9%.
In the case of `CC(C)(C)C(O)CN1CCN(Cc2nccn2CC(F)(F)F)CC1` (centres undefined), the cytotoxicity at 70.5 h is reported as 17.5%.
With `CCN1CC2(CC1=O)CN(C(=O)COC)CCN(S(C)(=O)=O)C2` (centres undefined) the cytotoxicity at 70.5 h was -11%.
Compound `O=C(Nc1nc2c(s1)CN(S(=O)(=O)C1CC1)CC2)c1cccc(Cl)c1` has a cytotoxicity at 70.5 h of 8.23%.
For `COCc1nc(C(=O)NS(=O)(=O)c2cc(F)ccc2F)cs1`, the cytotoxicity at 70.5 h was 20.7%.
With `CCC(CO)NC(=O)Nc1cc(F)ccc1Br` (centres undefined) the cytotoxicity at 70.5 h was -9.27%.
`CN(C)C(=O)N1CCC(c2nc3ccc(N4CCCC4)cn3n2)CC1` showed a cytotoxicity at 70.5 h of -4.23%.
Work on `CCc1noc(CN(C)C(=O)C2COc3ccccc3C2)n1` (centres undefined) yielded a cytotoxicity at 70.5 h of -0.861%.
Work on `CN(C)CCN(Cc1ccc(C#N)cc1)C(=O)c1ccn(C)c(=O)c1` yielded a cytotoxicity at 70.5 h of 24.8%.
With `COCC(=O)N1CCC(c2cncc(-c3cccc(F)c3)n2)CC1` the cytotoxicity at 70.5 h was -7.23%.
With `CCN1C[C@H]2CCN(C(=O)NC3CCCC3)CC[C@H]2S1(=O)=O` the cytotoxicity at 70.5 h was 12.8%.
For `Oc1cc(C2CCCCN2C2CCCC2)nc(-c2cccnc2)n1` (centres undefined), the cytotoxicity at 70.5 h was -7.77%.
With `O=C1NC2(CCN(C(=O)c3ccc(Cl)cc3)CC2)CC1c1ccccc1` (centres undefined) the cytotoxicity at 70.5 h was 20.8%.
Compound `CN(Cc1cc(Br)cn1C)C(=O)c1ccon1` has a cytotoxicity at 70.5 h of -2.35%.
In the case of `CCc1nc(NCCc2nc(C)c(C)s2)c2cnn(C)c2n1`, the cytotoxicity at 70.5 h is reported as -7.53%.
For `CN(Cc1ccc(CCC(C)(C)O)cc1)Cc1cccc(O)c1`, the cytotoxicity at 70.5 h was -8.03%.
`COc1c[nH]c(C(=O)Nc2nc(C(C)(C)C)cs2)cc1=O` gave a cytotoxicity at 70.5 h of -0.552%.
`COCC(C)(C#N)NC(=O)c1cn(-c2cccc(Cl)c2F)nn1` (centres undefined) showed a cytotoxicity at 70.5 h of -10.4%.
`O=C(NC1CCN(c2ncccc2F)C1)c1cccc(-n2ccnn2)c1` (centres undefined) gave a cytotoxicity at 70.5 h of -6.27%.
Work on `O=C(c1ccoc1)N1CCC2(CCC(=O)N2Cc2ccncc2)CC1` yielded a cytotoxicity at 70.5 h of 5.56%.
Compound `CC(C)Cc1ncc2c(n1)CN(c1cc(NCCO)nc(N)n1)C2` has a cytotoxicity at 70.5 h of -8.13%.
With `COCC(=O)N1CCN(Cc2nnc(C(C)(C)C)o2)CC1` the cytotoxicity at 70.5 h was -1.83%.
Compound `CCS(=O)(=O)N1CCC2(CC1)CCn1c(-c3cnn(C)c3)cnc12` has a cytotoxicity at 70.5 h of -13%.
Compound `c1coc(CN2CCn3c(COCC4CC4)nnc3C2)c1` has a cytotoxicity at 70.5 h of 0.787%.
Compound `CSCC[C@@H](CO)NC(=O)c1sc(-c2ccc(Cl)cc2)nc1C` has a cytotoxicity at 70.5 h of -11.9%.
With `CC(C#N)CNC(=O)Nc1ccc(-c2cc[nH]n2)cc1` (centres undefined) the cytotoxicity at 70.5 h was -1.44%.
Compound `CC1CN(C)CCN1C(=O)c1cnn(-c2ccc(Cl)cc2)c1` (centres undefined) has a cytotoxicity at 70.5 h of 19.4%.
Work on `CN(Cc1nnc2ccccn12)C(=O)CCC1CCCC1` yielded a cytotoxicity at 70.5 h of -8.63%.
Compound `Cn1nc2c(cc1=O)CN(CCOc1ccccc1C#N)CC2` has a cytotoxicity at 70.5 h of 35%.
For `CN1CCOC(C)(C(=O)Nc2nc(C(C)(C)C)cs2)C1` (centres undefined), the cytotoxicity at 70.5 h was 13.5%.
With `Cc1cnccc1-n1nc(C(C)C)nc1CS(C)(=O)=O` the cytotoxicity at 70.5 h was -9.46%.
With `CN1CCN(C2CCN(CCOc3cccc(Cl)c3)CC2)C1=O` the cytotoxicity at 70.5 h was -7.02%.
Work on `CCc1nc(C2CCCN(C(=O)NCCOC)C2)no1` (centres undefined) yielded a cytotoxicity at 70.5 h of 21.2%.
`CC(C)c1cc(C2CCN(Cc3cc(F)cc(F)c3)CC2)[nH]n1` showed a cytotoxicity at 70.5 h of -1.12%.
For `CNC(=O)C1Cn2ccnc2C2(CCN(C(=O)NC3CCCC3)CC2)O1` (centres undefined), the cytotoxicity at 70.5 h was -9.83%.
Compound `O=C(O)c1cc2c(nc1-c1ccsc1)CCN(C1CCOC1)CC2` (centres undefined) has a cytotoxicity at 70.5 h of -12.7%.
For `CC(=O)N1CCCCC[C@@H]2[C@@H]1[C@H](c1cccc(F)c1)CN2C(=O)C1CC1`, the cytotoxicity at 70.5 h was -3.31%.
With `O=C(CCn1ccc(=O)[nH]c1=O)N1CCC(Oc2ncccc2Cl)CC1` the cytotoxicity at 70.5 h was -6.14%.

Reference: ChEMBL document CHEMBL3507680, “University of Dundee, Gates Library screen for HepG2 cell viability”
